The values that follow come from paper PMC9266350, “Searching for a Paradigm Shift in Auger-Electron Cancer Therapy with Tumor-Specific Radiopeptides Targeting the Mitochondria and/or the Cell Nucleus” (International Journal of Molecular Sciences, 2022).

One may read the IC50 as the concentration at which inhibition is half-maximal.

Where a SMILES comes first, the peptide text is derived from it. Where no end group is shown, it is not given here. The star is where a group is joined. X1 = Cc1nn(CCN(CCN)CCCC(=O)NCCC[n+]2c3cc(N(C)C)ccc3cc3ccc(N(C)C)cc32)c(C)c1CC(=O)*; pyrazolyl‑diamine chelator carrying TPP = not defined here

Series [1] relates to PC3 cells. The experiment in a line: γ-H2AX assay and foci analysis. Type of series: cell-based, human. To be noted: 1.85 MBq, 24 h at 37 °C. As for the experimental part:
PC3 cells were seeded at a density of 10000 cells per well in an eight-well chamber slide and allowed to attach overnight. […] PC3 cells were washed three times with PBS, and fixed with 4% formaldehyde in PBS for 15 min. After washing with PBS, cells were permeabilized with Triton X-100 (0.5%) at room temperature for 5 min followed by two washing steps with 1% BSA in PBS. Then, cells were incubated with an anti-γ-H2AX primary antibody (mouse anti-γ-H2AX (ser139), Stressgen) at 2 μg/mL for 1 h. After being washed twice with 1% BSA in PBS, cells were incubated with a Texas Red-X-conjugated anti-mouse secondary antibody at […] for 1 h, followed by three washing steps with PBS. Cells were finally mounted in anti-fade mounting media with DAPI (Vectashield H-1200, Vector Laboratories).
Cells were analyzed under 64x magnification. Several high-quality 2D images were randomly collected in each slide and analyzed using the pipeline Speckle Count from the freeware CellProfiler. At least 200 nuclei were analyzed per experiment per dose. Statistical analysis was performed with Origin 7.5 software.

Series [2] has as its system PC3 cells. The experiment in a line: Confocal fluorescence microscopy colocalization with MitoTracker. Type of series: cell-based, human. To be noted: 1 µM, 30 min with MitoTracker Deep Red FM, fixed. On the procedure:
To study the intracellular location of uptaken Re-AO-BBN, cells were washed with PBS, incubated with MitoTracker™ Deep Red FM (1:1000, Invitrogen, Bleiswijk, The Netherlands) and Re-AO-BBN (1 µM) in FluoroBrite™ DMEM with high D-glucose for 30 min, fixed with 4% paraformaldehyde (in PBS) at 4 °C for 20 min, washed with PBS, incubated with Hoechst (0.2 µg/mL) for 1 h, washed and left submerged in PBS. Cells were imaged on a Leica TCS SP8 confocal microscope, equipped with a HC Plan Apo 20 × /0.75 dry objective, 405, 488 and 638 nm laser lines, PMT (MitoTracker) and HyD (Hoechst, Re-AO-BBN) detectors. The pinhole was set to 1 airy unit and Nyquist sampling was met in xyz (132 × 132 × 685 nm). Mitochondria accumulation was assessed by the Pearson coefficient between Re-AO-BBN and MitoTracker fluorescence intensities, considering an appropriate threshold.

The subject of series [3] is PC3 cells. The experiment in a line: Clonogenic assay. Type of series: cell-based, human. To be noted: highest concentration 10^−7 M (range 10^−10–10^−7 M), 24 h at 37 °C.
Description: PC3 cells were seeded at a density of 50000 cells per well in a 24 well-plate and allowed to attach overnight. […] Immediately, after incubation, cells were seeded out in appropriate dilution to form colonies, in 2 weeks, with at least 50 cells. Colonies were fixed with methanol: glacial acetic acid (3:1) and stained with Giemsa (4%).
The Plating Efficiency (PE), ratio of the number of colonies to the number of cells seeded, and the Survival Fraction (SF), number of colonies that arise after treatment of cells, expressed in terms of PE, were obtained following the methodology described in [66], where:(1) PE=number of colonies formed /number of cells seeded×100% (2) SF=number of colonies formed after treatment/number of cells seeded×PE
A further series concerns the target T1, human GRPR (Homo sapiens, UniProt P30550).
T1 construct: endogenous in cells; host or cells: PC3 human prostate carcinoma cells (intact, attached)
The series is described as follows: Competitive radioligand binding assay against [125I-Tyr4]-BBN. The following applies: PC3 cells, 90 min at 4 °C, one-site model, mean ± SEM of three independent experiments; read-out: IC50, displacement of [125I-Tyr4]-BBN from GRPR. On the procedure:
The in vitro cell-binding assays were performed with the prostate carcinoma cell line PC3. Briefly, cells were seeded in 24-well plates (150,000 cells per well) and allowed to attach overnight. […] The competition was interrupted by discarding supernatants and washing the cells twice with ice-cold PBS with 0.2% BSA. Cells were then lysed with 1 M NaOH treatment (2 × 0.4 mL, 10 min at 37 °C). Lysates were collected and counted for their radioactivity content in an automated γ–counter (HIDEX AMG, Hidex, Turku, Finland).

Series [4] relates to PC3 cells. The experiment in a line: Mitochondrial ToxGlo assay (cell membrane integrity and cellular ATP levels). The following applies: 2 h at 37 °C, HBSS with galactose and 1% BSA, CCCP 10 μM. On the procedure:
PC3 cells were seeded at a density of 10,000 cells per well in a 96 well-plate and allowed to attach overnight. […] Cells incubated only with this medium were used as a basal control and cells incubated with CCCP (10 μM) as a positive control for mitochondrial inhibition. After the 2 h, the Mitochondrial Toxglo assay was performed according to the manufacturer’s instructions (Promega). Assays were performed in triplicate.

T1 sequence (P30550 whole entry): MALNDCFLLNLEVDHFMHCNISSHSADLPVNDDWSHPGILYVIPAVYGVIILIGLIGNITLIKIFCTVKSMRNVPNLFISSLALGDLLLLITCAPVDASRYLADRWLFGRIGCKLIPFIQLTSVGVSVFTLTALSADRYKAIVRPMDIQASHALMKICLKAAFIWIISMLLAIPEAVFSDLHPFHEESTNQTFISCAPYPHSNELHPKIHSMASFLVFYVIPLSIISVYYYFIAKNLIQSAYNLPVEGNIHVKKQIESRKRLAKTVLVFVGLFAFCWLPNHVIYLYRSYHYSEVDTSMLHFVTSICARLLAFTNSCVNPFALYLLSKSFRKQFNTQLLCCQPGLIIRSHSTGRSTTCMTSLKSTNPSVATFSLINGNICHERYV

Turning to `[O]=[99Tc](=[O])(=[O])[O-]` [^99mTcO4^−], the “foci number / DNA damage relative to the control (in words)” value in the series with PC3 cells [1] is “did not cause any increase”. For the compound `CSCC[C@H](NC(=O)[C@H](CC(C)C)NC(=O)[C@H](Cc1c[nH]cn1)NC(=O)CNC(=O)[C@@H](NC(=O)[C@H](C)NC(=O)[C@H](Cc1c[nH]c2ccccc12)NC(=O)[C@H](CCC(N)=O)NC(=O)CNC(=O)CNC(=O)CNC(=O)Cc1c(C)nn(CCN(CCN)CCCC(=O)NCCC[n+]2c3cc(N(C)C)ccc3cc3ccc(N(C)C)cc32)c1C)C(C)C)C(N)=O` [Re-AO-BBN] (X1-GGGQWAVGHLM-NH2; C-terminus assumed), the “Pearson's Correlation Coefficient (PCC) of colocalization with Mitotracker dye” value in the series with PC3 cells [2] is 0.31. Further, the “effect on survival of PC3 cells compared with the control” value in the series on PC3 cells [3] is listed as “no effect”.

Regarding “Re-TPP-BBN: Re(I) congener of 99mTc-TPP-BBN, surrogate of the 99mTc complex ({pyrazolyl‑diamine chelator carrying TPP}-GGGQWAVGHLM; ends and bridges not checked; also: Re(I) complex of the chelator)”, in the series with human GRPR, the 50% inhibitory concentration (IC50) came out at 0.38 ± 0.14 nM. As to cyanide-m-chlorophenylhydrazone [CCCP], the “cell membrane integrity / viability versus control” value in the series on PC3 cells [4] (radiocomplexes 0.74 and 1.85 MBq (loss at the highest activity)) is listed as “did not compromise their viability”. The “ATP production / ATP levels versus control cells” value in the series on PC3 cells [4] (radiocomplexes 0.74 and 1.85 MBq) was “significantly reduced the ATP production”.
